Source: PMC6399351, “Cationic Intrinsically Disordered Antimicrobial Peptides (CIDAMPs) Represent a New Paradigm of Innate Defense with a Potential for Novel Anti-Infectives” (Scientific Reports, 2019)
Values after ≈ are worked out from the molar mass of the structure shown. Where two headings read alike, the source gives them in different places. Square brackets hold non-standard residues; d marks the D form. Ends that are not written are not given here. Peptide text beside a SMILES is read from it. * marks the point of attachment. Palmitoyl = CCCCCCCCCCCCCCCC(=O)*

What was measured:
[1] = tested on: Acinetobacter baumannii ATCC 19606; test: CO-ADD MIC, broth microdilution (CLSI); assay type: cell-based; conditions: Mueller–Hinton broth, 5 × 10^5 CFU/mL, 18 h 37 °C, by CO-ADD
From the text: (§1) They were defined as the lowest peptide
(§2) Further details of the screening

[2] = tested on: Pseudomonas aeruginosa ATCC 27853; test: CO-ADD MIC, broth microdilution (CLSI); assay type: cell-based; conditions: Mueller–Hinton broth, 5 × 10^5 CFU/mL, 18 h 37 °C, by CO-ADD
From the text: as §1, §2

[3] = tested on: Candida albicans ATCC 90028; test: CO-ADD MIC, antifungal assay (CLSI); assay type: cell-based; conditions: Yeast Nitrogen Base broth, 24 h 35 °C, by CO-ADD
Description: (§3) Fungi strains were cultured for 3 days on Yeast Extract-Peptone Dextrose (YPD) agar at 30 °C. A yeast suspension of 1 × 10^6 to 5 × 10^6 cells/mL (as determined by OD530) was prepared from five colonies. These stock suspensions were diluted with Yeast Nitrogen Base (YNB) broth to a final concentration of 2.5 × 10^3 CFU/mL. […] Plates were covered and incubated at 35 °C for 24 h without shaking.

[4] = tested on: Cryptococcus neoformans ATCC 208821; test: CO-ADD MIC, antifungal assay (CLSI); assay type: cell-based; conditions: Yeast Nitrogen Base broth, 24 h 35 °C, by CO-ADD
Description: as §3

E. coli ATCC 25922 = test: CO-ADD MIC, broth microdilution (CLSI); assay type: cell-based, Escherichia coli; conditions: Mueller–Hinton broth, 5 × 10^5 CFU/mL, 18 h 37 °C, by CO-ADD
From the text: as §1, §2

P. aeruginosa ATCC 10145 = conditions: CFU assay, 10 mM NaP, pH 5.5, 0.25% glucose
S. aureus ATCC 6538 = conditions: CFU assay, 10 mM NaP
[5] = tested on: Klebsiella pneumonia ATCC 700603; conditions: MDR strain; CLSI, Mueller–Hinton broth, 5 × 10^5 CFU/mL, 18 h 37 °C, by CO-ADD
[6] = tested on: Staphylococcus aureus ATCC 43300; conditions: MRSA; CLSI, Mueller–Hinton broth, 5 × 10^5 CFU/mL, 18 h 37 °C, by CO-ADD

Molecule	Minimal inhibitory concentration (MIC) [1]	Minimal inhibitory concentration (MIC) [2]	Minimal inhibitory concentration (MIC) [3]	Minimal inhibitory concentration (MIC) [4]	Minimal inhibitory concentration (MIC) (E. coli ATCC 25922)	LD90 (P. aeruginosa ATCC 10145)	LD100 (P. aeruginosa ATCC 10145)	LD90 (S. aureus ATCC 6538; pH 5.5, 0.25% glucose)	LD99 (concentration of peptide which kills 99.0% of inoculum) (S. aureus ATCC 6538; pH 5.5, 0.25% glucose)	LD100 (S. aureus ATCC 6538; pH 5.5, 0.25% glucose)	Minimal inhibitory concentration (MIC) [5]	Minimal inhibitory concentration (MIC) [6]	LD90 (S. aureus ATCC 6538; pH 7.3, 1% TSB)	LD99 (concentration of peptide which kills 99.0% of inoculum) (S. aureus ATCC 6538; pH 7.3, 1% TSB)	LD90 (S. aureus ATCC 6538; pH 7.0, 0.25% glucose)	LD100 (S. aureus ATCC 6538; pH 7.0, 0.25% glucose)	max.killing (S. aureus ATCC 6538; pH 7.0, 0.25% glucose)
CCCCCCCCCCCCCCCC(=O)NCC(=O)N[C@H](CCCNC(=N)N)C(=O)N[C@H](CCCNC(=N)N)C(=O)NCC(=O)NCC(=O)N[C@H](CCCNC(=N)N)C(=O)NCC(=O)NCC(=O)N[C@H](CCCNC(=N)N)C(=O)NCC(=O)N[C@H](CCCNC(=N)N)C(=O)NCC(=O)N[C@H](CCCNC(=N)N)C(=O)O [(D)-Pal-GR13] (Palmitoyl-G[dR][dR]GG[dR]GG[dR]G[dR]G[dR]-OH; C-terminus assumed)	8 µg/mL (≈ 5.02 µM)	16 µg/mL (≈ 10 µM)	8 µg/mL (≈ 5.02 µM)	2 µg/mL (≈ 1.26 µM)	8 µg/mL (≈ 5.02 µM)	0.075 µg/mL	0.3 µg/mL	0.075 µg/mL	0.59 µg/mL	75 µg/mL	≥32 µg/mL	2 µg/mL (≈ 1.26 µM)					
CCCCCCCCCCCCCCCC(=O)NCC(=O)N[C@@H](CCCNC(=N)N)C(=O)N[C@@H](CCCNC(=N)N)C(=O)NCC(=O)NCC(=O)N[C@@H](CCCNC(=N)N)C(=O)NCC(=O)NCC(=O)N[C@@H](CCCNC(=N)N)C(=O)NCC(=O)N[C@@H](CCCNC(=N)N)C(=O)O [Pal-GR11] (Palmitoyl-GRRGGRGGRGR-OH)	8 µg/mL (≈ 5.8 µM)	16 µg/mL (≈ 11.6 µM)	4 µg/mL (≈ 2.9 µM)	4 µg/mL (≈ 2.9 µM)	8 µg/mL (≈ 5.8 µM)						>32 µg/mL	4 µg/mL (≈ 2.9 µM)	0.3 µg/mL	1.18 µg/mL			
CCCCCCCCCCCCCCCC(=O)N[C@@H](Cc1c[nH]cn1)C(=O)NCC(=O)N[C@@H](CO)C(=O)N[C@@H](CCCNC(=N)N)C(=O)N[C@@H](CO)C(=O)NCC(=O)N[C@@H](CCC(N)=O)C(=O)N[C@@H](CO)C(=O)N[C@@H](CO)C(=O)N[C@@H](CCCNC(=N)N)C(=O)NCC(=O)N[C@@H](CCC(=O)O)C(=O)N[C@@H](CCCNC(=N)N)C(=O)N[C@@H](Cc1c[nH]cn1)C(=O)NCC(=O)N[C@@H](CO)C(=O)N[C@@H](CO)C(=O)N[C@@H](CO)C(=O)NCC(=O)N[C@@H](CO)C(=O)N[C@@H](CO)C(=O)N[C@@H](CO)C(=O)N[C@@H](Cc1c[nH]cn1)C(=O)O [Pal-HR 1-11] (Palmitoyl-HGSRSGQSSRGERHGSSSGSSSH-OH)	>32 µg/mL	>32 µg/mL	>32 µg/mL	>32 µg/mL	>32 µg/mL			2.35 µg/mL			>32 µg/mL	32 µg/mL (≈ 12.6 µM)					
CCCCCCCCCCCCCCCC(=O)NCC(=O)N[C@@H](CCCNC(=N)N)C(=O)N[C@@H](CCCNC(=N)N)C(=O)NCC(=O)N[C@@H](CO)C(=O)NCC(=O)N[C@@H](CC(C)C)C(=O)NCC(=O)N[C@@H](CCCNC(=N)N)C(=O)N[C@@H](CO)C(=O)N[C@@H](CO)C(=O)N[C@@H](CO)C(=O)N[C@@H](CCCNC(=N)N)C(=O)O [Pal-HR 1-18-3H3R-GR13] (Palmitoyl-GRRGSGLGRSSSR-OH)	16 µg/mL (≈ 10.2 µM)	>32 µg/mL	>32 µg/mL	16 µg/mL (≈ 10.2 µM)	>32 µg/mL			2.35 µg/mL			>32 µg/mL	16 µg/mL (≈ 10.2 µM)					
CCCCCCCCCCCCCCCC(=O)N[C@@H](CCCNC(=N)N)C(=O)NCC(=O)N[C@@H](CO)C(=O)N[C@@H](CCCNC(=N)N)C(=O)N[C@@H](CO)C(=O)NCC(=O)N[C@@H](CCC(N)=O)C(=O)N[C@@H](CO)C(=O)N[C@@H](CO)C(=O)N[C@@H](CCCNC(=N)N)C(=O)NCC(=O)N[C@@H](CCC(=O)O)C(=O)N[C@@H](CCCNC(=N)N)C(=O)N[C@@H](CCCNC(=N)N)C(=O)NCC(=O)N[C@@H](CO)C(=O)N[C@@H](CO)C(=O)N[C@@H](CO)C(=O)NCC(=O)N[C@@H](CO)C(=O)N[C@@H](CO)C(=O)N[C@@H](CO)C(=O)N[C@@H](CCCNC(=N)N)C(=O)O [Pal-HR-1-11-3H3R] (Palmitoyl-RGSRSGQSSRGERRGSSSGSSSR-OH)	8 µg/mL (≈ 3.07 µM)	>32 µg/mL	32 µg/mL (≈ 12.3 µM)	32 µg/mL (≈ 12.3 µM)	32 µg/mL (≈ 12.3 µM)			0.59 µg/mL			>32 µg/mL	32 µg/mL (≈ 12.3 µM)					
GRRGGRGGRGRGR [GR13]	>32 µg/mL	>32 µg/mL	>32 µg/mL	>32 µg/mL	>32 µg/mL			75 µg/mL			>32 µg/mL	>32 µg/mL			75 µg/mL		
GRRGSGLGRSSSRGGRGSGSGR [HR 1-18,4H-4R]	>32 µg/mL	>32 µg/mL	>32 µg/mL	>32 µg/mL	>32 µg/mL		0.15 µg/mL	150 µg/mL		> 300 µg/mL	>32 µg/mL	>32 µg/mL				> 300 µg/mL	98.8%
SHHRHFRSHQCRR [LCE-3C55-67]	>32 µg/mL	>32 µg/mL	>32 µg/mL	8 µg/mL	>32 µg/mL			2.35 µg/mL			>32 µg/mL	32 µg/mL					
